Test results published in patent US20230346792A1, “COMPOSITIONS AND METHODS FOR TREATING LUNG INFLAMMATION” (Hoth Therapeutics, Inc., priority 2020, published 2023).

Legend:
NK1R = molecular target: T1, NK1R (Rattus norvegicus, UniProt P14600); conditions: asthma model; cited from earlier work
T1 construct: host or cells: living animal of an asthma model (endogenous receptor)

[1] = system: NSCLC squamous cell carcinoma; conditions: one patient with history of COPD and NSCLC squamous cell carcinoma; aprepitant combined with radiotherapy; cited from earlier work
[2] = system: nociception induced by capsaicin (TRPV1) or AITC (TRPA1); conditions: capsaicin (via TRPV1) or AITC (via TRPA1), rat peritoneum; cited from earlier work
Covid-19 patients = test: Randomized double-blind placebo-controlled clinical study of aprepitant injectable emulsion in Covid-19 positive patients; assay type: in vivo, human; conditions: aprepitant injectable emulsion (e.g., Cinvanti) daily (QD), 14 days, comparator saline placebo, including severe to critical patients
Text: One group of patients receives saline placebo daily for a desirable period of time (e.g., 14 days) with normal management and care, and the other group of patients receives aprepitant injectable emulsion (e.g., Cinvanti®) daily (QD) during the same period of time (e.g., 14 days).

Neurokinin-1 receptor = molecular target: T2, Neurokinin-1 receptor (Homo sapiens, UniProt P25103); conditions: lung cancer; cited from earlier work
T2 construct: host or cells: treated subjects (endogenous receptor)

[3] = in vivo; cited from earlier work

T2 sequence (P25103 whole entry): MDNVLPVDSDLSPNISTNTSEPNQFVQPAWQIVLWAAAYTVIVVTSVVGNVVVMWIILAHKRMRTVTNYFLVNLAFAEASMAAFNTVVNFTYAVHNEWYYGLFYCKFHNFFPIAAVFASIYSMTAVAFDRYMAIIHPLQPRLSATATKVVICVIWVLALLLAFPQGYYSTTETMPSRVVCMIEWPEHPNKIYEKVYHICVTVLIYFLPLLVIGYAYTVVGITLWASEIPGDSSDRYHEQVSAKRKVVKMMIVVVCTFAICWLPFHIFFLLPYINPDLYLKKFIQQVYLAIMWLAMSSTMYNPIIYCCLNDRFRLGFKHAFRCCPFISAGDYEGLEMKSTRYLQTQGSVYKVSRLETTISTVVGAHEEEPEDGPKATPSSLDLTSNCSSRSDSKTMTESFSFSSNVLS
T1 sequence (P14600 whole entry): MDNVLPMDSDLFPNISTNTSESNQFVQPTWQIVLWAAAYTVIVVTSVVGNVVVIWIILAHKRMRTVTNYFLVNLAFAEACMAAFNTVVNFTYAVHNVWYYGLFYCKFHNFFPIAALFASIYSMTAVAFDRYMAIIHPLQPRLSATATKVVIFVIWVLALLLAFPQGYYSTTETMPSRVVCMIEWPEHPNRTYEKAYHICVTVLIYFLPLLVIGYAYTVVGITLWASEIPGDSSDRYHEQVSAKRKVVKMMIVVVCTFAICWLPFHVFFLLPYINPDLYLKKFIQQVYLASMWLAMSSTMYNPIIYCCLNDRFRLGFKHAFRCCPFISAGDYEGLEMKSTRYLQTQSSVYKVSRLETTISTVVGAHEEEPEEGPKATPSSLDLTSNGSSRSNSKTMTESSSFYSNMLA

| Structure (SMILES) | lung inflammation and inflammatory cytokines (NK1R) | treatment outcome of lung cancer patient [1] | nociception induced by capsaicin or AITC [2] | effectiveness in treating Covid-19 patients versus placebo (Covid-19 patients) | cough frequency (Neurokinin-1 receptor) | adverse effects of chronic treatment [3] |
| --- | --- | --- | --- | --- | --- | --- |
| C[C@@H](O[C@H]1OCCN(Cc2nc(=O)[nH][nH]2)[C@H]1c1ccc(F)cc1)c1cc(C(F)(F)F)cc(C(F)(F)F)c1 [aprepitant] | reduced lung inflammation and inflammatory cytokines | successfully treated | able to reduce nociception | more effective in treating Covid-19 patients | reduction in cough frequency | – |
| C=C(C)[C@]12C[C@@H](C)[C@@]34O[C@](Cc5ccccc5)(O[C@@H]1[C@@H]3C=C(COC(=O)Cc1ccc(O)c(OC)c1)C[C@]1(O)C(=O)C(C)=C[C@@H]41)O2 [resiniferatoxin] | – | – | able to reduce nociception | – | – | – |
| C#Cc1cccc(Nc2ncnc3cc(OCCOC)c(OCCOC)cc23)c1 [erlotinib] | – | – | – | – | – | induces hypomagnesemia, thereby triggering SP-mediated oxidative/inflammation stress and mild-to-moderate cardiac dysfunction |
